# Reference: article PMC5218480 (PLoS ONE, 2017)
# Tested on: MV-4-11 cells
# Test: Gene expression microarray analysis (Affymetrix PrimeView) and GSEA
# Type: cell-based, human
# Parameters: RFU PODN (11730768_x_at) / Fold change /veh PODN (11730768_x_at) / RFU LINC00158 (11744669_a_at) / Fold change /veh LINC00158 (11744669_a_at) / RFU DUSP10 (11751237_a_at) / Fold change /veh DUSP10 (11751237_a_at) / RFU ID3 (11757404_x_at) / Fold change /veh ID3 (11757404_x_at) / RFU PLEKHG5 (11737974_s_at) / Fold change /veh PLEKHG5 (11737974_s_at) / RFU LRRC4B (11730491_at) / Fold change /veh LRRC4B (11730491_at) / RFU GIMAP4 (11747438_a_at) / Fold change /veh GIMAP4 (11747438_a_at) / RFU KRT8 (11758183_x_at) / Fold change /veh KRT8 (11758183_x_at) / RFU CNN1 (11734310_a_at) / Fold change /veh CNN1 (11734310_a_at) / RFU VPS37D (11726825_at) / Fold change /veh VPS37D (11726825_at) / RFU C10orf10 (11716522_x_at) / Fold change /veh C10orf10 (11716522_x_at) / RFU KIR2DL2 /// KIR2DL4 /// KIR2DL5A /// KIR2DL5B /// KIR2DS1 /// KIR2DS2 /// KIR2DS3 /// KIR2DS4 /// KIR3DL3 /// KIR3DL3 /// KIR3DS1 (11738374_at) / Fold change /veh KIR2DL2 /// KIR2DL4 /// KIR2DL5A /// KIR2DL5B /// KIR2DS1 /// KIR2DS2 /// KIR2DS3 /// KIR2DS4 /// KIR3DL3 /// KIR3DL3 /// KIR3DS1 (11738374_at) / RFU C1QL1 (11718748_at) / Fold change /veh C1QL1 (11718748_at) / RFU TMPRSS4 (11747572_a_at) / Fold change /veh TMPRSS4 (11747572_a_at) / RFU HAMP (11756126_x_at) / Fold change /veh HAMP (11756126_x_at) / RFU RNFT2 (11725882_a_at) / Fold change /veh RNFT2 (11725882_a_at) / RFU NR4A2 (11747474_a_at) / Fold change /veh NR4A2 (11747474_a_at) / RFU ABCC12 (11746883_a_at) / Fold change /veh ABCC12 (11746883_a_at) / RFU TMEM136 (11760407_x_at) / Fold change /veh TMEM136 (11760407_x_at) / RFU CLDN22 /// WWC2 (11732394_at) / Fold change /veh CLDN22 /// WWC2 (11732394_at) / RFU HLA-DPB1 (11760878_x_at) / Fold change /veh HLA-DPB1 (11760878_x_at) / RFU SPINT1 (11716480_a_at) / Fold change /veh SPINT1 (11716480_a_at) / RFU GAP43 (11754022_s_at) / Fold change /veh GAP43 (11754022_s_at) / RFU A4GNT (11735810_at) / Fold change /veh A4GNT (11735810_at) / RFU PRB3 (11715151_x_at) / Fold change /veh PRB3 (11715151_x_at) / RFU TUBB4B (11761932_at) / Fold change /veh TUBB4B (11761932_at) / RFU CAPN14 (11732068_a_at) / Fold change /veh CAPN14 (11732068_a_at) / RFU TMCC2 (11721928_a_at) / Fold change /veh TMCC2 (11721928_a_at) / RFU IRGQ (11745062_a_at) / Fold change /veh IRGQ (11745062_a_at) / RFU FAM174B (11720279_a_at) / Fold change /veh FAM174B (11720279_a_at) / RFU TMPRSS4 (11748680_a_at) / Fold change /veh TMPRSS4 (11748680_a_at) / RFU FAM212B (11763350_a_at) / Fold change /veh FAM212B (11763350_a_at) / RFU PLEKHG5 (11743358_a_at) / Fold change /veh PLEKHG5 (11743358_a_at) / RFU ZSCAN30 (11745921_a_at) / Fold change /veh ZSCAN30 (11745921_a_at) / RFU CMKLR1 (11741424_a_at) / Fold change /veh CMKLR1 (11741424_a_at) / RFU LOC101060620 /// MAPK8IP1 (11723275_at) / Fold change /veh LOC101060620 /// MAPK8IP1 (11723275_at) / RFU SPTSSB (11747773_x_at) / Fold change /veh SPTSSB (11747773_x_at) / RFU PRSS12 (11739890_at) / Fold change /veh PRSS12 (11739890_at) / RFU BIN1 (11741810_x_at) / Fold change /veh BIN1 (11741810_x_at) / RFU WNT11 (11732464_a_at) / Fold change /veh WNT11 (11732464_a_at) / RFU C10orf10 (11716521_a_at) / Fold change /veh C10orf10 (11716521_a_at) / RFU C5orf56 (11738089_at) / Fold change /veh C5orf56 (11738089_at) / RFU CYB561 (11721691_x_at) / Fold change /veh CYB561 (11721691_x_at) / RFU ANKRD19P (11752326_a_at) / Fold change /veh ANKRD19P (11752326_a_at) / RFU OR2T12 /// OR2T33 /// OR2T8 (11738714_s_at) / Fold change /veh OR2T12 /// OR2T33 /// OR2T8 (11738714_s_at) / RFU VCAN (11748164_a_at) / Fold change /veh VCAN (11748164_a_at) / RFU JSRP1 (11732532_at) / Fold change /veh JSRP1 (11732532_at) / RFU KRTAP10-11 (11738290_x_at) / Fold change /veh KRTAP10-11 (11738290_x_at) / RFU MYO3A (11730013_a_at) / Fold change /veh MYO3A (11730013_a_at) / RFU EBF3 (11725865_a_at) / Fold change /veh EBF3 (11725865_a_at) / RFU CAMK2N1 (11719241_x_at) / Fold change /veh CAMK2N1 (11719241_x_at) / RFU C5orf56 (11738088_a_at) / Fold change /veh C5orf56 (11738088_a_at) / RFU OLFML3 (11715873_a_at) / Fold change /veh OLFML3 (11715873_a_at) / RFU LOC100653217 /// NTM (11731650_a_at) / Fold change /veh LOC100653217 /// NTM (11731650_a_at) / RFU MAPK11 (11762145_a_at) / Fold change /veh MAPK11 (11762145_a_at) / RFU FIZ1 (11724087_x_at) / Fold change /veh FIZ1 (11724087_x_at) / RFU OASL (11726364_x_at) / Fold change /veh OASL (11726364_x_at) / RFU SOX15 (11748057_x_at) / Fold change /veh SOX15 (11748057_x_at) / RFU CD79A (11719716_a_at) / Fold change /veh CD79A (11719716_a_at) / RFU HIST1H1D (11736915_at) / Fold change /veh HIST1H1D (11736915_at) / RFU CASKIN2 (11723855_a_at) / Fold change /veh CASKIN2 (11723855_a_at) / RFU LOC730098 (11760151_x_at) / Fold change /veh LOC730098 (11760151_x_at) / RFU OR4N2 (11742367_at) / Fold change /veh OR4N2 (11742367_at) / RFU PRRT2 (11749266_a_at) / Fold change /veh PRRT2 (11749266_a_at) / RFU SNX32 (11753110_a_at) / Fold change /veh SNX32 (11753110_a_at) / RFU CDHR5 (11726645_a_at) / Fold change /veh CDHR5 (11726645_a_at) / RFU RCAN1 (11760418_a_at) / Fold change /veh RCAN1 (11760418_a_at) / RFU FAM167A (11723789_a_at) / Fold change /veh FAM167A (11723789_a_at) / RFU FAM26E (11764081_at) / Fold change /veh FAM26E (11764081_at) / RFU ISYNA1 (11749810_s_at) / Fold change /veh ISYNA1 (11749810_s_at) / RFU ACY1 (11761880_at) / Fold change /veh ACY1 (11761880_at) / RFU 11764098_at / Fold change /veh 11764098_at / RFU SAMD14 (11745864_x_at) / Fold change /veh SAMD14 (11745864_x_at) / RFU NPB (11741838_a_at) / Fold change /veh NPB (11741838_a_at) / RFU TMPRSS6 (11731388_a_at) / Fold change /veh TMPRSS6 (11731388_a_at) / RFU KRTAP10-2 (11738614_at) / Fold change /veh KRTAP10-2 (11738614_at) / RFU ARHGAP8 /// PRR5-ARHGAP8 (11727945_x_at) / Fold change /veh ARHGAP8 /// PRR5-ARHGAP8 (11727945_x_at) / RFU KRTAP5-7 /// NADSYN1 (11734609_at) / Fold change /veh KRTAP5-7 /// NADSYN1 (11734609_at) / RFU RASL12 (11751679_a_at) / Fold change /veh RASL12 (11751679_a_at) / RFU CDKN2B (11736163_a_at) / Fold change /veh CDKN2B (11736163_a_at) / RFU PRF1 (11729649_at) / Fold change /veh PRF1 (11729649_at) / RFU, ZNF638 /// ZNF638-IT1 / Fold change vs veh, ZNF638 /// ZNF638-IT1 / RFU, PANK3 / Fold change vs veh, PANK3 / RFU, SH3YL1 / Fold change vs veh, SH3YL1 / RFU, ZEB2 / Fold change vs veh, ZEB2 / RFU, NRIP1 / Fold change vs veh, NRIP1 / RFU, PTTG1IP / Fold change vs veh, PTTG1IP / RFU, CAPN2 / Fold change vs veh, CAPN2 / RFU, MED14 / Fold change vs veh, MED14 / RFU, SNORA58 / Fold change vs veh, SNORA58 / RFU, C1orf63 / Fold change vs veh, C1orf63 / RFU, LRRFIP1 / Fold change vs veh, LRRFIP1 / RFU, NDUFAF7 / Fold change vs veh, NDUFAF7 / RFU, SLC12A2 / Fold change vs veh, SLC12A2 / RFU, IBTK / Fold change vs veh, IBTK / RFU, ESF1 / Fold change vs veh, ESF1 / Fold change vs veh, TMEM50B / RFU, TAOK1 / Fold change vs veh, TAOK1 / RFU, ACBD3 / Fold change vs veh, ACBD3 / RFU, TMA16 / Fold change vs veh, TMA16 / RFU, RWDD3 / Fold change vs veh, RWDD3 / RFU, BCAT1 / Fold change vs veh, BCAT1 / RFU, EDEM3 / Fold change vs veh, EDEM3 / RFU, TMEM33 / Fold change vs veh, TMEM33 / RFU, WDR75 / Fold change vs veh, WDR75 / RFU, AHCTF1 / Fold change vs veh, AHCTF1 / RFU, TFRC / Fold change vs veh, TFRC / RFU, ZDHHC17 / Fold change vs veh, ZDHHC17 / RFU, NOM1 / Fold change vs veh, NOM1 / RFU, ARL8B / Fold change vs veh, ARL8B / RFU, ZBTB11 / Fold change vs veh, ZBTB11 / RFU, TAMM41 / Fold change vs veh, TAMM41 / RFU, KIAA1704 /// LOC100996395 / Fold change vs veh, KIAA1704 /// LOC100996395 / RFU, ING1 / Fold change vs veh, ING1 / RFU, TRMT61B / Fold change vs veh, TRMT61B / RFU, FUBP3 / Fold change vs veh, FUBP3 / RFU, TP53 / Fold change vs veh, TP53 / RFU, TNKS2 / Fold change vs veh, TNKS2 / RFU, ZFP14 / Fold change vs veh, ZFP14 / RFU, ACTR2 / Fold change vs veh, ACTR2 / RFU, PPP3R1 / Fold change vs veh, PPP3R1 / RFU, PIK3R1 / Fold change vs veh, PIK3R1 / RFU, HNRNPA1 / Fold change vs veh, HNRNPA1 / RFU, RNF170 / Fold change vs veh, RNF170 / RFU, ZNF28 / Fold change vs veh, ZNF28 / RFU, RNGTT / Fold change vs veh, RNGTT / RFU, OGT / Fold change vs veh, OGT / RFU, BRD1 / Fold change vs veh, BRD1 / RFU, MARS / Fold change vs veh, MARS / RFU, ZNF655 / Fold change vs veh, ZNF655 / RFU, FAHD1 / Fold change vs veh, FAHD1 / RFU, BDP1 / Fold change vs veh, BDP1 / RFU, LRRCC1 / Fold change vs veh, LRRCC1 / RFU, ARID1A / Fold change vs veh, ARID1A / RFU, ZNF146 / Fold change vs veh, ZNF146 / RFU, ZNF330 / Fold change vs veh, ZNF330 / RFU, GPN3 / Fold change vs veh, GPN3 / RFU, C9orf123 / Fold change vs veh, C9orf123 / RFU, N4BP2L2 / Fold change vs veh, N4BP2L2 / RFU, ARFIP1 / Fold change vs veh, ARFIP1 / RFU, FAM179B / Fold change vs veh, FAM179B / RFU, BCL10 / Fold change vs veh, BCL10 / RFU, UHRF1BP1L / Fold change vs veh, UHRF1BP1L / RFU, BET1 / Fold change vs veh, BET1 / RFU, CNOT2 / Fold change vs veh, CNOT2 / RFU, ZNF268 / Fold change vs veh, ZNF268 / Fold change vs veh, ZNF507 / RFU, DGCR2 / Fold change vs veh, DGCR2 / RFU, WDSUB1 / Fold change vs veh, WDSUB1 / Fold change vs veh, HSP90B1 /// MIR3652 / RFU, ADSS / Fold change vs veh, ADSS / RFU, GK / Fold change vs veh, GK / RFU, ZNF148 / Fold change vs veh, ZNF148 / RFU, TAF9 / Fold change vs veh, TAF9 / RFU, SLC1A5 / Fold change vs veh, SLC1A5 / RFU, SLMO2 / Fold change vs veh, SLMO2 / RFU, ABCC4 / Fold change vs veh, ABCC4 / RFU, LOC101060439 /// RAP1B / Fold change vs veh, LOC101060439 /// RAP1B / RFU, RFX7 / Fold change vs veh, RFX7 / RFU, GTPBP10 / Fold change vs veh, GTPBP10 / RFU, CNEP1R1 / Fold change vs veh, CNEP1R1 / RFU, BIVM-ERCC5 /// ERCC5 / Fold change vs veh, BIVM-ERCC5 /// ERCC5 / RFU, ILF3 / Fold change vs veh, ILF3 / RFU 11762660_at / Fold change /veh 11762660_at / RFU VCAN (11757783_s_at) / Fold change /veh VCAN (11757783_s_at) / RFU DDX43 (11728927_at) / Fold change /veh DDX43 (11728927_at) / RFU KRT8 (11758188_x_at) / Fold change /veh KRT8 (11758188_x_at) / RFU NKD1 (11759106_at) / Fold change /veh NKD1 (11759106_at) / RFU SRD5A1 (11742802_a_at) / Fold change /veh SRD5A1 (11742802_a_at) / RFU TPSAB1 /// TPSB2 (11721975_s_at) / Fold change /veh TPSAB1 /// TPSB2 (11721975_s_at) / RFU GSTM3 (11746129_a_at) / Fold change /veh GSTM3 (11746129_a_at) / RFU IL23R (11737362_x_at) / Fold change /veh IL23R (11737362_x_at) / RFU TMEM51 (11727254_a_at) / Fold change /veh TMEM51 (11727254_a_at) / RFU PIWIL2 (11732686_x_at) / Fold change /veh PIWIL2 (11732686_x_at) / RFU ORM1 (11744905_x_at) / Fold change /veh ORM1 (11744905_x_at) / RFU CCDC152 (11743942_at) / Fold change /veh CCDC152 (11743942_at) / RFU ECM1 (11717891_a_at) / Fold change /veh ECM1 (11717891_a_at) / RFU IL23R (11748794_a_at) / Fold change /veh IL23R (11748794_a_at) / RFU TNFAIP8L3 (11732012_x_at) / Fold change /veh TNFAIP8L3 (11732012_x_at) / RFU MBOAT4 (11741988_at) / Fold change /veh MBOAT4 (11741988_at) / RFU 11764193_at / Fold change /veh 11764193_at / RFU TMEM53 (11763286_at) / Fold change /veh TMEM53 (11763286_at) / RFU MAGEB2 (11727129_at) / Fold change /veh MAGEB2 (11727129_at) / RFU TMEM200A (11744735_a_at) / Fold change /veh TMEM200A (11744735_a_at) / RFU CCDC152 (11751479_a_at) / Fold change /veh CCDC152 (11751479_a_at) / RFU FAM211A (11726209_a_at) / Fold change /veh FAM211A (11726209_a_at) / RFU RGS16 (11746705_a_at) / Fold change /veh RGS16 (11746705_a_at) / RFU VCAN (11755009_s_at) / Fold change /veh VCAN (11755009_s_at) / RFU RHOB (11743442_s_at) / Fold change /veh RHOB (11743442_s_at) / RFU RGS16 (11720943_a_at) / Fold change /veh RGS16 (11720943_a_at) / RFU RGS16 (11720944_at) / Fold change /veh RGS16 (11720944_at) / RFU, VPS4B / Fold change vs veh, VPS4B / RFU, CREB1 / Fold change vs veh, CREB1 / RFU, DNAJC13 / Fold change vs veh, DNAJC13 / RFU, GNAQ / Fold change vs veh, GNAQ / RFU, CDK5R1 / Fold change vs veh, CDK5R1 / RFU, ZRANB3 / Fold change vs veh, ZRANB3 / RFU, CUL4A / Fold change vs veh, CUL4A / RFU, CCNY / Fold change vs veh, CCNY / RFU, UFL1 / Fold change vs veh, UFL1 / RFU, COG3 / Fold change vs veh, COG3 / RFU, DIAPH2 / Fold change vs veh, DIAPH2 / RFU, SKA2 / Fold change vs veh, SKA2 / RFU, AFF3 / Fold change vs veh, AFF3 / RFU, LMF1 / Fold change vs veh, LMF1 / RFU, IPO11 / Fold change vs veh, IPO11 / RFU, DFFB / Fold change vs veh, DFFB / RFU, FOXP1 / Fold change vs veh, FOXP1 / RFU, CARD8 / Fold change vs veh, CARD8 / RFU, STRN3 / Fold change vs veh, STRN3 / RFU, ADK / Fold change vs veh, ADK / RFU, RASSF2 / Fold change vs veh, RASSF2 / RFU, WIPF1 / Fold change vs veh, WIPF1 / RFU, LARP1B / Fold change vs veh, LARP1B / RFU, RASA1 / Fold change vs veh, RASA1 / RFU, RB1 / Fold change vs veh, RB1 / RFU, PPFIA1 / Fold change vs veh, PPFIA1 / RFU, MAT2A / Fold change vs veh, MAT2A / RFU, CCT5 / Fold change vs veh, CCT5 / RFU, WDR92 / Fold change vs veh, WDR92 / RFU, CUX1 / Fold change vs veh, CUX1 / RFU, TTC7A / Fold change vs veh, TTC7A / RFU, TMEM135 / Fold change vs veh, TMEM135 / RFU, DEPTOR / Fold change vs veh, DEPTOR / RFU, CPM / Fold change vs veh, CPM / RFU, DNAJB6 / Fold change vs veh, DNAJB6 / RFU, CACNA2D3 / Fold change vs veh, CACNA2D3 / RFU, DTX4 / Fold change vs veh, DTX4 / RFU, TFCP2 / Fold change vs veh, TFCP2 / RFU, GMCL1 /// GMCL1P1 / Fold change vs veh, GMCL1 /// GMCL1P1 / RFU, AEBP2 / Fold change vs veh, AEBP2 / RFU, SNHG1 /// SNORD22 /// SNORD25 /// SNORD26 /// SNORD27 /// SNORD28 /// SNORD29 /// SNORD31 / Fold change vs veh, SNHG1 /// SNORD22 /// SNORD25 /// SNORD26 /// SNORD27 /// SNORD28 /// SNORD29 /// SNORD31 / Fold change (Aza/veh), C12orf56 (ProbeSet 11735607_a_at) / Fold change (ACY-1035/veh), C12orf56 (ProbeSet 11735607_a_at) / Fold change (Aza/veh), FGFR1OP (ProbeSet 11751329_s_at) / Fold change (ACY-1035/veh), FGFR1OP (ProbeSet 11751329_s_at) / Fold change (Aza/veh), VPS36 (ProbeSet 11739960_a_at) / Fold change (ACY-1035/veh), VPS36 (ProbeSet 11739960_a_at) / RFU SYPL1 (11715823_x_at) / Fold change /veh SYPL1 (11715823_x_at) / RFU IGFBP7 (11715501_s_at) / Fold change /veh IGFBP7 (11715501_s_at) / RFU REEP3 (11722064_at) / Fold change /veh REEP3 (11722064_at) / RFU IGLL1 (11728026_x_at) / Fold change /veh IGLL1 (11728026_x_at): dose or concentration left out as unconfirmed
# Details: ProbeSet 11723475_a_at; LIST B
structure (smiles),measurement,value
Nc1ncn([C@@H]2O[C@H](CO)[C@@H](O)[C@H]2O)c(=O)n1 [azacitidine],"Fold change vs veh, TRMT61B",0.91
